Results taken from US20260033491A1, “FUNGAL SPORE FORMULATIONS INCLUDING CARRIER FLUIDS” (priority 2018, published 2026).
Marks after values point to notes of the source that are not given here.

What was measured:
[1] = test system: Purpureocillium lilacinum spores; assay: Spore viability (germination rate) of Purpureocillium lilacinum spores dispersed in fluid and stored at 30° C.; assay type: cell-based; conditions: P. lilacinum spores in fluid
Experimental: (§1) 3 g of Purpureocillium lilacinum pure spore powder were transferred into a formulation vessel (IKA Type DT-20 mixing vessel with dispersion tool for Ultra Turrax) using a sterile spoon. 12 mL of fluid were added into the respective formulation vessel and dispersed using ultra turrax tube drive control for 1 min at 3000 rpm; change direction after 30 sec. After this 2.8 mL were transferred in four sample bottles (Wheaton Serum vial, Type I) leaving little headspace and closed tight using crimpneck caps (Macherey—Nagel type N 13). Afterwards all sample bottles were transferred to an incubator set at 30° C. and stored for a given time.
(§2) In regular intervals a sample was retrieved from the storage location and analyzed for spore viability. For this purpose, the original samples were thoroughly homogenized. Aliquots of 0.25 g or 250 μL of each sample were transferred into 50 mL falcon tubes. The tubes were filled up to 25 g using a sterile aqueous solution containing 2% Tween 80 and homogenized by vortexing to achieve the first dilution step (1:100 dilution). This dilution was used for further dilution and spotting on agar.
For these samples, an alternative dispersion/dilution method was applied where the oil phase was stripped from the spores first: 0.25 g or 250 μL of sample are weighted into a 2 mL Eppendorf tube, and 0.5 mL of 2% Tween 80 is added, and the mixture is transferred into an Eppendorf centrifuge where it is centrifuged for 1 min at 10.000 rpm. The supernatant (=upper oily phase) is discarded by using a pipette. […] 250 μL or 0.25 g of each sample were transferred into a sterile 50 mL Falcon tube. The tubes were filled up to 25 g using a sterile aqueous solution containing 2% Tween 80 and homogenized by vortexing to achieve the first dilution step (1:100 dilution). This dilution was used for further dilution and spotting on agar.
(§3) For evaluation of spore germination rate prepare a 1:30000 dilution based on the 1:100 dilution achieved by multiple automated dilution (pipetting robot, 96 well plate). Afterwards 12×12 cm agar plates were taken and spotted with 10 times 5 μL of each sample using an automated 12-Channel pipet. Wait until liquid is soaked up by agar and transfer agar plate to an incubator and incubate at 25° C. for 17 hours. Open the plate and place it under the microscope. Randomly chose one area per spot and record the number of germinated and non-germinated spores that are within the designated field. At least 200 spores per sample need to be evaluated. If needed count more than one field per spot.

I. fumosorosea spores = assay: Spore viability (germination rate) of Isaria fumosorosea spores dispersed in fluid and stored at 30° C.; assay type: cell-based; conditions: I. fumosorosea spores in fluid; for spore viability [%] after 1 m (27 d) / spore viability [%] after 7 m (210 d): storage at 30° C.
Experimental: as §1, with “1.5 g” for “3 g”, “of I. fumosorosea” for “of Purpureocillium lilacinum”, “spoon. 13.5” for “spoon. 12”, “N 13)” for “N 13).”
as §2, with “Therefore” for “For this purpose,”
Not all samples mixed well or mixed at all in 2% Tween 80. For these samples, an alternative dispersion/dilution method was applied where the oil phase is stripped from the spores first: 0.25 g or 250 μL of sample were weighted into a 2 mL Eppendorf tube, and 0.5 mL of 2% Tween 80 was added, and the mixture was transferred into an Eppendorf centrifuge where it was centrifuged for 1 min at 10.000 rpm. The supernatant (=upper oily phase) was discarded by using a pipette. Afterwards 250 μL of Breakthru S 240 were added and the spores were well dispersed. 250 μL or 0.25 g of each sample were transferred into a sterile 50 mL Falcon tube. The tubes were filled up to 25 g using a sterile aqueous solution containing 2% Tween 80 and homogenized by vortexing to achieve the first dilution step (1:100 dilution). This dilution was used for further dilution and spotting on agar.
as §3, with “1:15000” for “1:30000”, “are” for “were”, “23°” for “25°”, “16” for “17”

CCCCOC(=O)CCCCC(=O)OCCCC [Adimoll DB, di-n-Butyl adipate]
spore viability [%] at day 1 [1]: 98.9% | spore viability [%] after 5-6 w (35-40 d) ([1]; storage at 30° C., 35-40 d): 97.5% | spore viability [%] after 3 m (87-92 d) ([1]; storage at 30° C., 87-92 d): 89.8% | spore viability [%] at day 1 (I. fumosorosea spores): 89.5% | spore viability [%] after 1 m (27 d) (I. fumosorosea spores): 66.6% | spore viability [%] after 7 m (210 d) (I. fumosorosea spores): 60.0%

CC(=O)OCC(COC(C)=O)OC(C)=O [Triacetin, Glycerin triacetate]
spore viability [%] at day 1 [1]: 98.3% | spore viability [%] taken after 7 m of storage ([1]; storage at 30° C., 7 m): 69.4* % | spore viability [%] after 2 w (12-15 d) ([1]; storage at 30° C., 12-15 d): 97.9% | spore viability [%] after 1 m (27-28 d) ([1]; storage at 30° C., 27-28 d): 96.2% | spore viability [%] after 2 m (51-55 d) ([1]; storage at 30° C., 51-55 d): 90.8% | spore viability [%] at day 1 (I. fumosorosea spores): 90% | spore viability [%] after 1 m (27 d) (I. fumosorosea spores): 84.0% | spore viability [%] after 7 m (210 d) (I. fumosorosea spores): 69.1%
